In patent US20070122422A1, “Sodium-independent small neutral amino acid transporter transporting L- and D- amino acids” (Japan Science and Technology Corporation, priority 2000, published 2007):

What was measured:
Type in all cases: cell-based
[1] = molecular target: T1, asc-1 of mouse (co-expressed with 4F2hc of mouse) (Mus musculus, UniProt P63115); assay: Michaelis-Menten kinetic test of substrate incorporation by Xenopus oocytes co-expressing asc-1 and 4F2hc; conditions: ratio to the Vmax value for alanine (defined as 1.00)
T1 construct: expressed in transfected cells; host or cells: Xenopus oocytes injected with cRNA
T1 sequence (P63115 1-530): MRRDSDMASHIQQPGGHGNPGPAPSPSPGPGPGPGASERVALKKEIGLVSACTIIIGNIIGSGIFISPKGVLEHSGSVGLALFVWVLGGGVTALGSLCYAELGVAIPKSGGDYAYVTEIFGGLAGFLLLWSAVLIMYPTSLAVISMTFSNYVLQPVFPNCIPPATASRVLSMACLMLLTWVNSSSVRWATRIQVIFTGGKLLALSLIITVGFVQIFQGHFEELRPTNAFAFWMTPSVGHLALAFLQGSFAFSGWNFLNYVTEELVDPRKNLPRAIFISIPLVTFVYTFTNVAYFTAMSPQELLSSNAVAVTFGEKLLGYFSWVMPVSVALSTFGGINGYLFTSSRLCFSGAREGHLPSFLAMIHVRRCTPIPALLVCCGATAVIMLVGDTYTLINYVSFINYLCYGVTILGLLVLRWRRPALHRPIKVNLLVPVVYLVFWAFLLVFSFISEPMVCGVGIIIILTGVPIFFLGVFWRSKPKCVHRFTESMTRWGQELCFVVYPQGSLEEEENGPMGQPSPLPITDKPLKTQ
T1 sequence (P10852 1-526 partner): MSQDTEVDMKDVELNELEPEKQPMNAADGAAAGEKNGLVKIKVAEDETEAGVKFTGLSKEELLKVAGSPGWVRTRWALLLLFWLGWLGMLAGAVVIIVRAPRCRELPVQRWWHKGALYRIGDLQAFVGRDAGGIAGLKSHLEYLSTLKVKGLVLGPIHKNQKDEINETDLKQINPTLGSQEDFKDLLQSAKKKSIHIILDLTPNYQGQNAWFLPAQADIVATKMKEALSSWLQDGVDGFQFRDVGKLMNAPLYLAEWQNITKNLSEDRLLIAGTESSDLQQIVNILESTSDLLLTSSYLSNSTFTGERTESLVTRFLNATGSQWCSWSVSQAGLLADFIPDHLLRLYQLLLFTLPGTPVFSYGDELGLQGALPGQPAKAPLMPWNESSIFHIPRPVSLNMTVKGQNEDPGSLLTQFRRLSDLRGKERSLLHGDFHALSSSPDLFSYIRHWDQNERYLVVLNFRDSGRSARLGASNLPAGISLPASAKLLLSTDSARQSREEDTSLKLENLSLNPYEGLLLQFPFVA
Method: (§1) Into oocytes were injected 12 ng of asc-1 gene cRNA of mouse, 13 ng of 4F2hc gene cRNA of mouse or 12 ng asc-1 gene cRNA of mouse/13 ng of 4F2hc gene cRNA of mouse to express followed by incubating for 3 days. […] Thus, the oocytes were allowed to stand for 30 minutes in a Na^+-free uptake solution [100 mM choline chloride, 2 mM potassium chloride, 1.8 mM calcium chloride, 1 mM magnesium chloride, 5 mM HEPES; pH 7.4] containing ^14C-alanine (100 μM) as a substrate and the rate of the substrate incorporated into the cells was measured by way of counting the radioactivity incorporated thereinto.
A Michaelis-Menten kinetic test was carried out for a sodium-independent small neutral amino acid transporter asc-1 which transports L- and D-amino acids. By checking the changes in the rate of incorporation of alanine due to the difference in concentration of the alanine substrate, the Michaelis-Menten kinetic test of asc-1 was carried out.
An experiment for the incorporation of alanine was carried out according to the method mentioned in the above Example 2(1) using the oocytes into which both asc-1 gene cRNA of mouse and 4F2hc gene cRNA of mouse were injected.
With regard to amino acids other than alanine which were used as substrates, a Michaelis-Menten kinetic was carried out as well in the same manner whereupon Km values and Vmax values were calculated. Each Vmax value in Table 1 was shown in terms of the ratio when the Vmax value of alanine was defined as 1.00.

[2] = molecular target: T1, asc-1 of mouse (co-expressed with 4F2hc of mouse); assay: Incorporation of radiolabeled amino acids and analogs by oocytes co-expressing asc-1 and 4F2hc; conditions: for transport by asc-1 (affinity in words): summary statement, asc-1 co-existing with 4F2hc; for incorporation into the oocytes as substrate: radiolabeled substrate, oocytes expressing both asc-1 and 4F2hc, Na+-free uptake solution
Method: Incorporation of alanine when asc-1 gene cRNA of mouse was solely expressed in oocytes of Xenopus and when asc-1 gene cRNA of mouse and 4F2hc gene cRNA of mouse were expressed in oocytes of Xenopus together was compared.
as §1
In an experiment of incorporation of alanine by oocytes into which both asc-1 gene cRNA and 4F2hc gene cRNA of mouse were injected together, influence of the salt added to the medium was investigated.
The experiment of incorporation of alanine was carried out in accordance with the method mentioned in the above Example 2(1) using oocytes into which both asc-1 gene cRNA and 4F2hc gene cRNA of mouse were injected together. When the influence of sodium ion was checked however, a standard uptake solution (where 100 mM choline chloride was substituted with 100 mM sodium chloride) was used in place of the Na^+-free uptake solution as the uptake solution. When the influence of chlorine ion was checked, a gluconic acid uptake solution (where 100 mM sodium chloride was substituted with 100 mM sodium gluconate) was used in place of the standard uptake solution.
Incorporation by asc-1 was investigated using various amino acids and analogs thereof as substrates. Experiment for incorporation of various amino acids and analogs thereof was carried out according to the method mentioned in the above Example 2(1) using oocytes into which asc-1 gene cRNA of mouse and 4F2hc gene cRNA of mouse were injected together. With regard to the substrates however, various compounds labeled with radioactivity were used in place of ^14C-alanine.
Influence of pH was checked in an experiment for incorporation of alanine by oocytes into which both asc-1 gene cRNA and 4F2hc gene cRNA of mouse were injected together. With regard to an experiment for incorporation of alanine, the method according to that mentioned in the above Example 2 (1) was carried out using oocytes into which both asc-1 gene cRNA of mouse and 4F2hc gene cRNA of mouse were injected together.

[3] = molecular target: T1, asc-1 of mouse (co-expressed with 4F2hc of mouse); assay: Inhibition of 14C-alanine incorporation by added amino acids and analogs in oocytes co-expressing asc-1 and 4F2hc; conditions: 14C-alanine 50 μM; 5 mM non-labeled compound; Na+-free uptake solution
Method: as §1
In an experiment of incorporation of alanine by oocytes into which both asc-1 gene cRNA of mouse and 4F2hc gene cRNA of mouse were injected, influence of addition of various amino acid and analogs thereof was investigated.
In an experiment of incorporation of alanine, a method according to that mentioned in the above Example 2(1) was carried out using oocytes into which both asc-1 gene cRNA of mouse and 4F2hc gene cRNA of mouse were injected. Here, a Na^+-free uptake solution was used and incorporation of ^14C-alanine (50 μM) was measured in the presence and absence of 5 mM of various compounds (non-labeled).

[4] = molecular target: T1, asc-1 of mouse (co-expressed with 4F2hc of mouse); assay: Release of preloaded 14C-alanine from oocytes co-expressing asc-1 and 4F2hc on extracellular addition of compound; conditions: 100 μM compound added to Na+-free uptake solution; room temperature
Method: (§2) Release of a preloaded ^14C-alanine mediated by asc-1 was checked in the oocytes into which both asc-1 gene cRNA and 4F2hc gene cRNA of mouse were injected together. ^14C-Alanine (−3nCi) of 100 μM in an amount of 100 nl was injected into the oocytes into which both asc-1 gene cRNA and 4F2hc gene cRNA of mouse were injected together, washed with an ice-cooled Na^+-free uptake solution containing no alanine and transferred to a Na^+-free uptake solution to which alanine (100 μM) was added or not added at room temperature (18° C.-22° C.) and the amount of ^14C-alanine released outside the cells was measured.
In oocytes into which cRNA of asc-1 gene and cRNA of 4F2hc gene of mouse were injected together, release of preloaded ^14C-alanine mediated by asc-1 was investigated whereupon it was checked whether the compound which inhibited the incorporation of ^14C-alanine mediated by asc-1 was a substrate of asc-1.
as §2, with “^14C-Alanine” for “Release of a preloaded ^14C-alanine mediated by asc-1 was checked in the oocytes into which both asc-1 gene cRNA and 4F2hc gene cRNA of mouse were injected together. ^14C-Alanine”, “which amino acid or amino acid analog” for “which alanine”
Black bars in FIG. 18 are the case where there were used oocytes into which cRNA of mouse asc-1 gene and cRNA of mouse 4F2hc gene were injected while white bars are the case where there were used oocytes into which water was injected instead of cRNA as a control.

[5] = molecular target: T2, intracellular substrate-binding site of asc-1 of mouse (Mus musculus, UniProt P63115); assay: Release of injected 14C-amino acid from oocytes co-expressing asc-1 and 4F2hc on extracellular alanine; conditions: alanine 100 μM added to Na+-free uptake solution
T2 construct: expressed in transfected cells; host or cells: Xenopus oocytes injected with cRNA
T2 sequence (P63115 1-530): T1 sequence (P63115 1-530)
T2 sequence (P10852 1-526 partner): T1 sequence (P10852 1-526 partner)
Method: In oocytes into which cRNA of asc-1 gene and cRNA of 4F2hc gene of mouse were injected together, release of preloaded ^14C-amino acid mediated by asc-1 was checked whereby the substrate selectivity of intracellular substrate-binding site of asc-1 was checked.
^14C-Amino acid (˜3nCi) of 100 μM in an amount of 100 nl was injected into the oocytes into which both asc-1 gene cRNA and 4F2hc gene cRNA of mouse were injected together, washed with an ice-cooled Na^+-free uptake solution containing no alanine and transferred to a Na^+-free uptake solution to which alanine (100 μM) was added or not added at room temperature (18° C.-22° C.) and the amount of ^14C-amino acid released outside the cells was measured.
Black bars in FIG. 21 show the case where alanine was added to a Na^+-free uptake solution while bars with oblique lines show the case where alanine was not added to a Na^+-free uptake solution.

N[C@@H](Cc1c[nH]cn1)C(=O)O [L-Histidine]
Vmax [1]: 0.79 | transport by asc-1 (affinity in words) [2]: lowly affinitive

COC(=O)[C@H](C)N [alanine methyl ester]
inhibition of incorporation of 14C-alanine mediated by asc-1 [3]: inhibited | increase in the release of preloaded 14C-alanine [4]: significant increase | transport by asc-1 (affinity in words) [2]: transports

CC(C)(N)C(=O)O [AIB, α-aminoisobutyric acid]
inhibition of incorporation of 14C-alanine mediated by asc-1 [3]: inhibited | increase in the release of preloaded 14C-alanine [4]: significant increase | Vmax [1]: 0.81 | incorporation into the oocytes as substrate [2]: big incorporation | transport by asc-1 (affinity in words) [2]: transports

γ-aminoisobutyric acid
inhibition of incorporation of 14C-alanine mediated by asc-1 [3]: did not affect

CNCC(=O)O [sarcosine]
inhibition of incorporation of 14C-alanine mediated by asc-1 [3]: did not affect

NCC(=O)O [Glycine]
increase in the release of preloaded 14C-alanine [4]: high increase | Vmax [1]: 0.89 | release of injected 14C-labeled amino acid by extracellular alanine [5]: increase in release

CC[C@H](C)[C@H](N)C(=O)O [L-Isoleucine]
Vmax [1]: 1.33 | transport by asc-1 (affinity in words) [2]: lowly affinitive

C[C@H](O)[C@@H](N)C(=O)O [D-Threonine]
increase in the release of preloaded 14C-alanine [4]: significant increase

N[C@H](CO)C(=O)O [D-Serine]
inhibition of incorporation of 14C-alanine mediated by asc-1 [3]: strongly inhibited | increase in the release of preloaded 14C-alanine [4]: significant increase | Vmax [1]: 1.22 | incorporation into the oocytes as substrate [2]: big incorporation | transport by asc-1 (affinity in words) [2]: highly affinitive

N[C@H](CS)C(=O)O [D-cysteine]
inhibition of incorporation of 14C-alanine mediated by asc-1 [3]: mediumly inhibited | increase in the release of preloaded 14C-alanine [4]: significant increase | transport by asc-1 (affinity in words) [2]: transports

NC1(C(=O)O)CC2CCC1C2 (stereo not drawn) [BCH, 2-amino-2-norbornane-carboxylic acid]
inhibition of incorporation of 14C-alanine mediated by asc-1 [3]: did not affect

C[C@@H](O)[C@H](N)C(=O)O [L-Threonine]
increase in the release of preloaded 14C-alanine [4]: high increase | Vmax [1]: 0.86 | release of injected 14C-labeled amino acid by extracellular alanine [5]: increase in release

CN[C@@H](C)C(=O)O [N-methylalanine]
inhibition of incorporation of 14C-alanine mediated by asc-1 [3]: did not affect

N[C@@H](CS)C(=O)O [L-Cysteine]
inhibition of incorporation of 14C-alanine mediated by asc-1 [3]: particularly strongly inhibited | Vmax [1]: 0.82 | release of injected 14C-labeled amino acid by extracellular alanine [5]: increase in release | incorporation into the oocytes as substrate [2]: big incorporation | transport by asc-1 (affinity in words) [2]: highly affinitive

N[C@@H](Cc1ccccc1)C(=O)O [L-Phenylalanine]
Vmax [1]: 1.09 | transport by asc-1 (affinity in words) [2]: lowly affinitive

NCCC(=O)O [β-Alanine]
inhibition of incorporation of 14C-alanine mediated by asc-1 [3]: inhibited | increase in the release of preloaded 14C-alanine [4]: significant increase | Vmax [1]: 0.92 | incorporation into the oocytes as substrate [2]: big incorporation | transport by asc-1 (affinity in words) [2]: transports

CC(C)[C@H](N)C(=O)O [L-Valine]
increase in the release of preloaded 14C-alanine [4]: medium increase | Vmax [1]: 1.17 | transport by asc-1 (affinity in words) [2]: lowly affinitive

C[C@@H](N)C(=O)O [D-Alanine]
inhibition of incorporation of 14C-alanine mediated by asc-1 [3]: strongly inhibited | increase in the release of preloaded 14C-alanine [4]: significant increase | Vmax [1]: 0.86 | incorporation into the oocytes as substrate [2]: big incorporation | transport by asc-1 (affinity in words) [2]: transports

CSCC[C@H](N)C(=O)O [L-Methionine]
increase in the release of preloaded 14C-alanine [4]: medium increase | Vmax [1]: 1.15 | transport by asc-1 (affinity in words) [2]: lowly affinitive
